Measured values: PMC10547880, “Synthesis and biological evaluation of novel 1,2,3-triazole hybrids of cabotegravir: identification of potent antitumor activity against lung cancer” (Frontiers in Pharmacology, 2023)

How the values were obtained:
Type in all cases: cell-based, Human
[1] = test system: H460 cells; experiment: CCK8 cell viability and IC50 measurement, H460; details: for Cell viability: H460, 25 μM; for IC50: H460, 72 h, CCK8; for cell proliferation inhibition rate: H460, 72-h treatment
Description: (§1) Human lung cancer cell line H460 and H1299, human liver normal cell line LO2 were bought from ATCC. DMEM or RPMI 1640 was used as the cell culture medium with 10% FBS and 1% penicillin/streptomycin. Cells were maintained in an incubator with 37°C humidified atmosphere and 5% CO2.
(§2) Cell viability and IC50 values were determined using the CCK8 assay kit. Cells were seeded at a density of 5 × 10^3 cells per well in a 96-well plate. After overnight adhesion, 25 μM of compounds or vehicle control DMSO which all dissolved in the culture medium were added to cells and cultured for 48 h or 72 h. CCK8 reagent, dissolved in the medium, was then added to cells and incubated for 1 h. The absorbance at 450 nm was measured using a microplate spectrophotometer (Thermo). Cell viability was calculated, with the untreated group taken as 100%. For IC50 values determination, different concentrations (0, 0.4 μM, 2 μM, 10 μM, 20 μM, 50 μM) of compounds were added to cells for 72 h. Subsequent CCK8 measurement allowed the calculation of inhibition percentage based on cell viability. The IC50 values were computed by the prism statistical software. The CCK-8 assay was conducted three times and the repetitions in each time were at least three. All the values were expressed as Mean ± SD, p < 0.05 was considered statistically significant.
(§3) In order to assess the potential cytotoxicity of the synthesized compounds, we selected two types of human non-small-cell lung cancer cell line, H460 and H1299. Cell viability and cytotoxicity were evaluated using the CCK8 assay ([Xu et al., 2018]). The cells were treated with 25 μM of compounds 5a-5s and 6a-6i for 48h and 72 h. […] In contrast, no compounds managed to reduce H1299 cell viability to less than 50%, yet compounds 5i, 5m, 6h and 6i achieved cell viability rates below 70%. […] It is worth noting that minimal effects on the cell viability of the normal cell line LO2 were observed when exposed to these compounds. Further, we determined the half-maximal inhibitory concentration (IC50) of selected compounds against H460 cells, the results of which were summarized in Table 3.

[2] = test system: H1299 cells; experiment: CCK8 cell viability, H1299; details: H1299, 25 μM
Description: as §1, §2, §3

[3] = test system: LO2 cells; experiment: CCK8 cell viability, normal cell line LO2; details: LO2 normal liver cells, 25 μM, 72 h
Description: as §1, §2, §3

SMILES	Cell viability ([1]; 48 h)	Cell viability ([1]; 72 h)	IC50 [1]	Cell viability ([2]; 48 h)	Cell viability ([2]; 72 h)	Cell viability [3]	cell proliferation inhibition rate [1]
COc1c2n(cc(C(=O)Nc3cccc(-c4cn(-c5ccccc5C(F)(F)F)nn4)c3)c1=O)CC1OCC(C)N1C2=O (stereo not drawn) [Compound 5a]	87.78%	65.75%	31.8 ± 0.47 µM	121.35%	102.55%	105.28%	
COc1c2n(cc(C(=O)Nc3cccc(-c4cn(-c5ccccc5C)nn4)c3)c1=O)CC1OCC(C)N1C2=O (stereo not drawn) [Compound 5c]			9.65 ± 0.04 µM	94.81%	83.51%	73.79%	exceed 50%
CCc1ccccc1-n1cc(-c2cccc(NC(=O)c3cn4c(c(OC)c3=O)C(=O)N3C(C)COC3C4)c2)nn1 (stereo not drawn) [Compound 5d]	92.17%		12.7 ± 4.85 µM	117.48%	99.81%	127.81%	exceed 50%
COc1c2n(cc(C(=O)Nc3cccc(-c4cn(-c5cc(C(F)(F)F)cc(C(F)(F)F)c5)nn4)c3)c1=O)CC1OCC(C)N1C2=O (stereo not drawn) [Compound 5e]	101.34%	101.97%	> 100 µM	103.75%	99.34%	129.12%	
COc1c2n(cc(C(=O)Nc3cccc(-c4cn(-c5cccc(F)c5)nn4)c3)c1=O)CC1OCC(C)N1C2=O (stereo not drawn) [Compound 5f]	93.31%	100.16%		114.19%	100.41%	130.35%	
COc1ccccc1-n1cc(-c2cccc(NC(=O)c3cn4c(c(OC)c3=O)C(=O)N3C(C)COC3C4)c2)nn1 (stereo not drawn) [Compound 5g]	82.94%	99.43%		117.81%	103.45%	128.56%	
COc1c2n(cc(C(=O)Nc3cccc(-c4cn(-c5cccc(C(F)(F)F)c5)nn4)c3)c1=O)CC1OCC(C)N1C2=O (stereo not drawn) [Compound 5h]	97.75%	75.09%	> 100 µM	114.98%	93.73%	101.34%	
COc1c2n(cc(C(=O)Nc3cccc(-c4cn(-c5ccc(C(F)(F)F)cc5)nn4)c3)c1=O)CC1OCC(C)N1C2=O (stereo not drawn) [Compound 5j]	100.66%	111.72%		96.98%	92.49%	108.63%	
COc1c2n(cc(C(=O)Nc3cccc(-c4cn(-c5cc(C(F)(F)F)ccc5C(F)(F)F)nn4)c3)c1=O)CC1OCC(C)N1C2=O (stereo not drawn) [Compound 5k]	94.55%	52.15%	36 ± 2.73 µM	113.47%	91.70%	124.51%	
COc1c2n(cc(C(=O)Nc3cccc(-c4cn(-c5c(C)cc(C)cc5C)nn4)c3)c1=O)CC1OCC(C)N1C2=O (stereo not drawn) [Compound 5l]	84.74%	98.25%		118.92%	91.44%	125.46%	
COc1c2n(cc(C(=O)Nc3cccc(-c4cn(-c5ccccc5Br)nn4)c3)c1=O)CC1OCC(C)N1C2=O (stereo not drawn) [Compound 5m]	96.50%	94.59%	> 50 µM	112.42%		111.3%	
COc1c2n(cc(C(=O)Nc3cccc(-c4cn(-c5ccc(F)cc5)nn4)c3)c1=O)CC1OCC(C)N1C2=O (stereo not drawn) [Compound 5n]	99.22%	105.04%		115.05%	91.74%	127.86%	
COc1c2n(cc(C(=O)Nc3cccc(-c4cn(-c5ccccc5I)nn4)c3)c1=O)CC1OCC(C)N1C2=O (stereo not drawn) [Compound 5o]	101.09%	104.29%		120.83%	86.67%	100.11%	
COc1c2n(cc(C(=O)Nc3cccc(-c4cn(-c5ccccc5)nn4)c3)c1=O)CC1OCC(C)N1C2=O (stereo not drawn) [Compound 5p]	88.36%	104.18%		114.26%	87.16%	109.72%	
COc1c2n(cc(C(=O)Nc3cccc(-c4cn(-c5cccc(Cl)c5)nn4)c3)c1=O)CC1OCC(C)N1C2=O (stereo not drawn) [Compound 5q]	99.40%	104.14%	> 100 µM	107.23%	88.40%	125.35%	
COc1c2n(cc(C(=O)Nc3cccc(-c4cn(-c5cccc(Br)c5)nn4)c3)c1=O)CC1OCC(C)N1C2=O (stereo not drawn) [Compound 5r]	99.03%	107.13%		117.54%	89.82%	127.81%	
COc1c2n(cc(C(=O)Nc3cccc(-c4cn(-c5ccccc5Cl)nn4)c3)c1=O)CC1OCC(C)N1C2=O (stereo not drawn) [Compound 5s]	71.73%		13.4 ± 4.54 µM	127.14%	97.37%	122.75%	exceed 50%
COc1c2n(cc(C(=O)Nc3cccc(-c4cn(Cc5ccccc5)nn4)c3)c1=O)CC1OCC(C)N1C2=O (stereo not drawn) [Compound 6a]	99.81%	118.33%	> 50 µM	118.73%	101.39%	127.44%	
COc1c2n(cc(C(=O)Nc3cccc(-c4cn(Cc5ccccc5Br)nn4)c3)c1=O)CC1OCC(C)N1C2=O (stereo not drawn) [Compound 6b]	51.88%		30.5 ± 2.18 µM	104.60%	101.92%	126.52%	exceed 50%
COc1c2n(cc(C(=O)Nc3cccc(-c4cn(Cc5ccccc5C)nn4)c3)c1=O)CC1OCC(C)N1C2=O (stereo not drawn) [Compound 6c]	105.51%	101.80%		110.58%	97.63%	103.41%	
COc1c2n(cc(C(=O)Nc3cccc(-c4cn(Cc5ccc(C(F)(F)F)cc5)nn4)c3)c1=O)CC1OCC(C)N1C2=O (stereo not drawn) [Compound 6d]	113.95%	105.14%		113.99%	93.95%	104.58%	
COc1c2n(cc(C(=O)Nc3cccc(-c4cn(Cc5ccccc5C(F)(F)F)nn4)c3)c1=O)CC1OCC(C)N1C2=O (stereo not drawn) [Compound 6e]	77.85%	60.74%	22.88 ± 0.13 µM	127.00%	92.15%	127.55%	
COc1c2n(cc(C(=O)Nc3cccc(-c4cn(Cc5ccc(Cl)cc5)nn4)c3)c1=O)CC1OCC(C)N1C2=O (stereo not drawn) [Compound 6f]	91.99%	94.49%		104.20%	96.47%	130.96%	
COc1cccc(Cn2cc(-c3cccc(NC(=O)c4cn5c(c(OC)c4=O)C(=O)N4C(C)COC4C5)c3)nn2)c1 (stereo not drawn) [Compound 6g]	93.36%	95.01%		91.06%	94.37%	130.54%	
COc1c2n(cc(C(=O)Nc3cccc(-c4cn(Cc5ccccc5Cl)nn4)c3)c1=O)CC1OCC(C)N1C2=O (stereo not drawn) [Compound 6h]			15.86 ± 0.09 µM	126.87%		88.86%	exceed 50%
COc1c2n(cc(C(=O)Nc3cccc(-c4cn(Cc5cccc(F)c5)nn4)c3)c1=O)CC1OCC(C)N1C2=O (stereo not drawn) [Compound 6i]	97.90%	95.51%		99.47%		127.14%	
